According to patent publication US20040162297A1, “Adenosine derivative in polymorph I form” (priority 2001, published 2004):

Test: stability of the polymorphic form at ambient temperatures
Format: physicochemical

stability at ambient temperatures: particular stability
Structure (SMILES): CC(C)(C)c1nnc([C@H]2O[C@@H](n3cnc4c(Nc5ccc(Cl)cc5F)ncnc43)[C@H](O)[C@@H]2O)o1 [Polymorph I, (2S,3S,4R,5R)-2-(5-tert-butyl-[1,3,4]-oxadiazol-2-yl)-5-[6-(4-chloro-2-fluorophenylamino)-9H-purin-9-yl]-tetrahydrofuran-3,4-diol]
